The term inhibition denotes the drop in the measured response relative to a control, in per cent.

Where “and” joins values, the source holds several entries; their conditions need not be identical. Identical values can stand only once. Calls of active or inactive are those of the source.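 Rule for the calls: active = every replicate of triplicate confirmation testing shows 50% or greater inhibition; inconclusive = one or more replicate tests show below 50% inhibition; inactive = every triplicate test shows below 50% inhibition.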

Results on 61 compounds are retold here after PubChem BioAssay AID1264 (University of Pittsburgh Molecular Library Screening Center, 2008).

The assay has as its target Serine/threonine-protein kinase PLK1 (Homo sapiens) (UniProt P53350). Put plainly: PLK1 kinase activity inhibitors, confirmation, biochemical, analogue series, repeat of primary screen (AID 1264). Particulars: recombinant PLK1 kinase, TR-FRET phosphopeptide binding; at 10 µM; hits give high values. On the technique in general: Time-resolved FRET reads energy transfer from a long-lived donor to a nearby acceptor.

Serine/threonine-protein kinase PLK1 (Homo sapiens), sequence (P53350 whole entry, looked up): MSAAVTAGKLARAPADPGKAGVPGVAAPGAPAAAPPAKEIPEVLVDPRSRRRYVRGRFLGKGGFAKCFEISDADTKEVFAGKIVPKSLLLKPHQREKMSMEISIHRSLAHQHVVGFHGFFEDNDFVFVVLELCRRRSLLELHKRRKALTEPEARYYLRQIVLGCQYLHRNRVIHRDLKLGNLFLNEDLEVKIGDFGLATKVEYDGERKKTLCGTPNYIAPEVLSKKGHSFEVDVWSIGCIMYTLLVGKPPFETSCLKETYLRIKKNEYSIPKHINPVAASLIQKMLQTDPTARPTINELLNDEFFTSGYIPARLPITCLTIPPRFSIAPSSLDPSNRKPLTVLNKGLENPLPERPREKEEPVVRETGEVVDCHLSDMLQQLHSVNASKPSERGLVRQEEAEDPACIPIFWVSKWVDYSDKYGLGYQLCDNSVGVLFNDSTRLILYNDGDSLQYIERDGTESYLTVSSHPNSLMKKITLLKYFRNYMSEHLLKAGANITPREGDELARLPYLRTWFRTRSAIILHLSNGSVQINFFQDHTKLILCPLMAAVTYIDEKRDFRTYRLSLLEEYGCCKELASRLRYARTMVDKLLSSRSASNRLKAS

On to `CCOC(=O)c1ccccc1NC(=O)c1ccc(F)cc1F`, for which the inhibition is -4.35% (inactive).
Under `C1=C(c2ccccc2)Nc2ncnn2C1` stands 12.8% (inactive).
In the case of `CCOC(=O)c1cccc(NC(=O)c2c(O)[nH]c(=O)[nH]c2=O)c1` it was -17.6% (inactive); in that of `COc1ccc(C2C=C(C)Nc3ncnn32)cc1` (stereo unspecified), 5.53% (inactive).
In the case of `CCOC(=O)CCCCCNC(=O)c1c(O)[nH]c(=O)[nH]c1=O` it was -9.36% (inactive); in that of `CCOc1ccc(C2=CC(c3ccccc3)n3ncnc3N2)cc1` (stereo unspecified), -6.38% (inactive); in that of `Cn1c(N)c(S(=O)(=O)NCc2ccccc2)c(=O)n(C)c1=O`, -15.5% (inactive).
For the compound `CCOC(=O)c1ccc(NC(=O)c2ccc(F)cc2F)cc1`, the inhibition is 4.42% (inactive).
Under `CC1=CC(c2ccccc2)n2nc(N)nc2N1` (stereo unspecified) stands -13.7% (inactive); under `CCOC(=O)c1cccc(NC(=O)c2ccc(F)cc2F)c1`, -1.61% (inactive).
For the compound `CC(C)(C)C(=O)NCCc1nc(-c2ccccc2)no1`, the inhibition is 0.116% (inactive).
In the case of `CCOC(=O)c1ccccc1NC(=O)c1c(O)[nH]c(=O)[nH]c1=O` it was -7.12% (inactive); in that of `Cc1ccc(C2=CC(c3ccccc3)n3ncnc3N2)cc1` (stereo unspecified), -16.9% (inactive).
Under `CC1=CC(c2ccccc2)n2ncnc2N1` (stereo unspecified) stands 26% (inactive).
With `CCOc1ccc(NC(=O)c2c(O)[nH]c(=O)[nH]c2=O)cc1`, the inhibition is 4.03% (inactive).
In the case of `C1=C(c2ccccc2)Nc2ncnn2C1c1ccccc1` (stereo unspecified), the inhibition is -5.72% (inactive) and -12.8% (inactive).
Under `O=C(NCCc1nc(-c2ccccc2Cl)no1)C1CCCCC1` stands -35.6% (inactive); under `O=C(Nc1ccccc1)c1c(O)[nH]c(=S)[nH]c1=O`, 14.3% (inactive).
Under `O=C(Nc1ccccc1)c1c(O)[nH]c(=O)[nH]c1=O` stands 0.179% (inactive); under `CCOC(=O)c1ccc(NC(=O)c2c(N)n(C)c(=O)n(C)c2=O)cc1`, -20.8% (inactive); under `CCOc1ccc(NC(=O)c2ccc(F)cc2F)cc1`, -2.77% (inactive).
Turning to `O=C(Nc1ccccc1)c1ccc(F)cc1F`, the inhibition was 24.9% (inactive).
In the case of `CCCCOC(=O)c1ccc(NC(=O)c2ccc(F)cc2F)cc1` it was -1.8% (inactive); in that of `COc1ccc(C2C=C(c3ccccc3)Nc3ncnn32)cc1` (stereo unspecified), -8.01% (inactive); in that of `CCOC(=O)CCCCCNC(=O)c1ccc(F)cc1F`, -1.76% (inactive).
Under `CC(C)C(=O)NCCc1nc(-c2ccccc2Cl)no1` stands -5.05% (inactive); under `O=C(NCCc1nc(-c2ccccc2)no1)c1ccccc1`, -5.02% (inactive).
As for `CCOC(=O)c1cccc(NC(=O)c2c(NCc3ccccc3)[nH]c(=O)[nH]c2=O)c1`, the inhibition was -25.1% (inactive).
In the case of `CCC(=O)NCCCc1nc(-c2ccccc2)no1` it was -3.38% (inactive); in that of `CCOC(=O)c1ccc(NC(=O)c2c(O)[nH]c(=O)[nH]c2=O)cc1`, -4.9% (inactive); in that of `O=C(NCCc1nc(-c2ccccc2Cl)no1)c1ccccc1`, -12.8% (inactive).
Under `CC(C)(C)c1ccc(C2=CC(c3ccccc3F)n3ncnc3N2)cc1` (stereo unspecified) stands -3.46% (inactive).
Under `Cc1cccc(N/N=C/c2c(O)[nH]c(=S)[nH]c2=O)c1` stands -7.37% (inactive); under `Cc1ccc(C2=CC(c3ccc(C)cc3)n3ncnc3N2)cc1` (stereo unspecified), -1.39% (inactive).
With `CCOc1ccc(NC(=O)c2c(N)n(C)c(=O)[nH]c2=O)cc1`, the inhibition is -9.99% (inactive).
`CC(C)C(=O)NCCc1nc(-c2ccccc2)no1`: the inhibition is -10.1% (inactive).
In the case of `CCC(=O)NCCc1nc(-c2ccccc2)no1` it was -12.8% (inactive); in that of `Cc1ccc(C2C=C(c3ccccc3)Nc3ncnn32)cc1` (stereo unspecified), -8.59% (inactive).
Under `CC(=O)NCCc1nc(-c2ccc(Cl)cc2)no1` stands 0.952% (inactive); under `CCOC(=O)c1ccccc1NC(=O)c1c(O)[nH]c(=S)[nH]c1=O`, 19.1% (inactive); under `CCOC(=O)c1ccc(NC(=O)c2c(N)n(Cc3ccccc3)c(=O)[nH]c2=O)cc1`, -23.9% (inactive).
Take `O=C(NCCc1nc(-c2ccccc2)no1)c1ccco1`: the inhibition is -16.1% (inactive).
Under `CCOC(=O)c1ccc(NS(=O)(=O)c2c(N)n(C)c(=O)n(C)c2=O)cc1` stands -7.36% (inactive); under `C/C(=N\NC(=O)c1ccncc1)c1c(O)[nH]c(=O)[nH]c1=O`, -1.95% (inactive).
Under `Cc1cc(C)c(C2=CC(c3ccccc3)n3ncnc3N2)cc1C` (stereo unspecified) stands -3.17% (inactive); under `Cc1cc(=O)n2[nH]cnc2n1`, 19.1% (inactive); under `CCOC(=O)c1ccc(NC(=O)c2c(NCc3ccccc3)[nH]c(=O)[nH]c2=O)cc1`, -44% (inactive).
`CCCCOC(=O)c1ccc(NC(=O)c2c(O)[nH]c(=O)[nH]c2=O)cc1`: the inhibition was 13.1% (inactive).
Consider `CCOC(=O)c1ccc(NC(=O)c2c(N)n(C)c(=O)[nH]c2=O)cc1`, for which the inhibition is -19.2% (inactive).
In the case of `CCOC(=O)c1ccccc1NC(=O)c1c(N)n(C)c(=O)[nH]c1=O` it was -3.12% (inactive).
Under `CCC1=CC(c2ccccc2)n2ncnc2N1` (stereo unspecified) stands 27.4% (inactive); under `CCCC(=O)NC(C)c1nc(-c2ccc(C)cc2)no1` (stereo unspecified), -6.32% (inactive); under `CC(C)(C)c1ccc(C2=CC(c3ccccc3)n3ncnc3N2)cc1` (stereo unspecified), -7.88% (inactive).
Under `CC(C)C(=O)NCCc1nc(-c2ccc(Cl)cc2)no1` stands -14.7% (inactive); under `Cc1ccc(NC(=O)c2ccc(F)cc2F)cc1`, 0.531% (inactive); under `Cc1ccc(C2=CC(c3ccccc3)n3ncnc3N2)c(C)c1` (stereo unspecified), -6.91% (inactive).
With `FC(F)(F)c1ccccc1C1=CC(c2ccccc2)n2ncnc2N1` (stereo unspecified), the inhibition was -2.08% (inactive).
For the compound `CCOC(=O)c1cccc(NC(=O)c2c(N)n(C)c(=O)[nH]c2=O)c1`, the inhibition was -1.45% (inactive).
In the case of `Cn1cccc1C1C=C(c2ccc(C(C)(C)C)cc2)Nc2ncnn21` (stereo unspecified) it was -5.07% (inactive); in that of `Cn1c(N)c(C(=O)Nc2ccccc2)c(=O)[nH]c1=O`, 8.78% (inactive).
For `CCCCOC(=O)c1ccc(NC(=O)c2c(N)n(C)c(=O)[nH]c2=O)cc1`, the inhibition is -5.01% (inactive).
